What was measured:
[1] = Liver fraction stability (thin-layer chromatography); format: in vitro ADME, rat
Description: For the determination of liver fraction stability, rat liver microsomal and cytosolic proteins were used (MOLTOX™ manufactures products, North Carolina, US). Rat liver microsomal and cytosolic proteins were used according to the manufacturer’s recommendations and the methodology previously described. […] The final concentration of 696 in the aqueous medium was 100 µM and was prepared from a stock solution in DMSO. The solutions were further homogenized and incubated at 37 °C for 1 to 4 h following the OECD recommendation for drug development. After that, thin-layer chromatography of ethyl acetate extracts was performed to evaluate the presence of metabolites.

[2] = Cytotoxicity in mammalian cells (MTT, all cell types); format: cell-based; conditions: tested at 25, 50, and 100 µM
Description: The cytotoxicity of the compounds was assayed in different types of cells (TZM-bl cells, U87-CD4-CCR5, murine macrophages (J774.1), and THP-1 monocytes) at 25, 50, and 100 µM (Fig. 2). […] Compound 314 has the most complete toxicology profile because was preclinically developed for Chagas disease infection, as an antiparasitic drug. […] It has lower oral toxicity than PF74. Was predicted as no mutagenic by the TEST software.
TZM-bl cells, U87-CD4-CCR5, murine macrophages (J774.1), and THP-1 monocytes (ATCC®TIB-202™) were grown following ATCC recommendations. Cells were seeded in a 96-well plate (10^4 cells in 200 µL culture medium) and incubated at 37 °C in a 5% CO2 atmosphere for 48 h, to allow cell adhesion before drug testing. For stimulation (THP-1 monocytes), cells were incubated with 100 nM of phorbol 12-myristate 13-acetate (PMA) for 48 h. PMA was then washed and cells were left for an additional 24 h, 48 h or11 days (only U87 cells) with growth media containing compound 696 at 10, 25, 50, and 100 µM. […] Cell viability was then assessed by measuring the mitochondria-dependent reduction of MTT (3-(4,5-dimethylthiazol-2-yl)-2,5-diphenyltetrazolium bromide) to formazan. […] After removing the medium, formazan crystals were dissolved in 180 µL of DMSO and 20µL of MTT buffer (0.1 M glycine, 0.1 M NaCl, 0.5 mM EDTA, pH 10.5), and the absorbance at 560 nm was measured. […]

[3] = system: HIV-1 reverse transcription (pol viral DNA); experiment: qPCR quantification of reverse transcribed viral DNA in U87-CD4-CCR5 cells; format: cell-based; conditions: 10 µM, cells preincubated, DNA extracted 48 h post-infection
Description: U87-CD4-CCR5 cells were plated in a 24-wells plate at 1.25 × 10^5 cells per well. […] Total DNA was extracted 48 h post-infection using the AllPrep DNA/RNA Mini Kit (Qiagen, Venlo, Netherlands). […] The following program was used in the LightCycler 480 Real-Time PCR System (Roche, Basel, Switzerland): pre-incubation: 95 °C for 3 min, pre-amplification: 2 cycles of 95 °C for 15 s and 49 °C for 15 s, amplification: 40 cycles of 95 °C for 10 s, 58 °C for 20 s, 72 °C for 30 s, melting curve stage: 95 °C for 5 s, 55 °C for 1 min and then 97 °C with acquisition every 10 °C, cooling stage: 40 °C for 10 s. Serial dilution of the 8E5 cell line which contains 1 copy of HIV-1 proviral DNA per cell was used as a standard curve for viral RT products [46]. […] Results were calculated as the number of copies of Pol per copy of β-actin. Statistical analysis was performed using an unpaired, two-tailed, Mann–Whitney test with GraphPad Prism 7.0 software. Tests were performed in quadruplicate, in two independent experiments.

monomeric HIV-1 CA = target: T1, monomeric HIV-1 CA (Human immunodeficiency virus type 1 group M subtype B, UniProt P12493); experiment: Affinity for HIV-1 CA by microscale thermophoresis (MST); format: binding
T1 construct: the capsid protein (CA) of the Gag polyprotein; made in house
Description: The affinity of compound 696 for HIV-1 CA in vitro was measured by microscale thermophoresis (MST) as described previously for FIV CA [31]. Due to its intrinsic autofluorescence interfering with MST, the binding of compound 314 to CA was measured using isothermal microcalorimetry (ITC) with a Microcal iTC200 calorimeter (Malvern Instruments, Worcestershire, UK). The calorimeter cell contained 200 µL of recombinant HIV-1 CA (kind gifted by Drs Verrier and Coiffier) at 0.78 mg/mL in phosphate buffer (NaH2PO4/Na2HPO4) 50 mM pH 7.5, NaCl 100 mM, 1% DMSO [v/v]. Compound 314 at 200 µM was then injected sequentially into the calorimeter cell (injection #1: 1 µL, injections #2-#20: 2 µL) at 120 s intervals. Data were analyzed using the OriginLab8.5® software according to the manufacturer’s instructions.

TZM-bl cells = experiment: Cytotoxicity in TZM-bl cells (MTT); format: cell-based, human; conditions: Homo sapiens, TZM-bl; Table 1, 696, 48hs
Description: (§1) TZM-bl cells, U87-CD4-CCR5, murine macrophages (J774.1), and THP-1 monocytes (ATCC®TIB-202™) were grown following ATCC recommendations. Cells were seeded in a 96-well plate (10^4 cells in 200 µL culture medium) and incubated at 37 °C in a 5% CO2 atmosphere for 48 h, to allow cell adhesion before drug testing. For stimulation (THP-1 monocytes), cells were incubated with 100 nM of phorbol 12-myristate 13-acetate (PMA) for 48 h. […] A vehicle for control (0.4% DMSO) and negative wells (cells in medium) was used in each test. […] After removing the medium, formazan crystals were dissolved in 180 µL of DMSO and 20µL of MTT buffer (0.1 M glycine, 0.1 M NaCl, 0.5 mM EDTA, pH 10.5), and the absorbance at 560 nm was measured. […] Tests were performed in triplicate, in two independent experiments.

[4] = Cytotoxicity in TZM-bl cells (MTT); format: cell-based, human; conditions: human, TZM-bl cells; 48hs
Description: as §1

[5] = Cytotoxicity in murine macrophages (MTT); format: cell-based; conditions: mouse, J774.1 murine macrophages; 48 hs
Description: as §1

## Cc1ccc2c(c1)nc(-c1ccc(N(C)C)cc1)n2CCc1ccccc1 [compound 696, 2-(4-N,N-dimethylaminophenyl)-5-methyl-1-phenethyl-1H-benzimidazole]
[1]
  metabolic stability (in words): high metabolic stability
[1]; 100 µM, 37 °C, TLC, absence of new metabolites
  stability under microsomal and cytosolic fraction derived from rat liver: stable for 4 h
[1]; rat, rat liver microsomes, read-out: Metabolic stability, half-life (t1/2)
  half-life at 100 µM: > 4 h
[2]
  EC50: > 50 µM
[3]
  inhibition of HIV-1 reverse transcription (pol viral DNA by qPCR): did not show any significant effect
Monomeric HIV-1 CA
  Kd: 69 ± 6 µM
TZM-bl cells
  EC50: > 25 µM
[4]
  EC50 at 48 h: > 50 µM
[5]
  EC50 at 48 h: > 50 µM
